Laboratory results as given in ChEMBL document CHEMBL4699536, “Discovery of Natural Compounds for Cardiac Fibrosis by a Transcriptome-Based Functional Gene Module Reference Approach” (J Nat Prod, 2020).
Active and inactive are the calls of the source.

Experiments:
Assay type in all cases: functional, organism-based
Conditions in all cases: time 30.0 day
[1] = tested on: Rattus norvegicus; assay: Cardioprotective activity in Sprague-Dawley rat model of LAD coronary artery ligation-induced cardiac fibrosis assessed as decrease in myocardial necrotic area at 2.86 mg/kg, po administered via gavage for 30 days
[2] = tested on: Rattus norvegicus; assay: Cardioprotective activity in Sprague-Dawley rat model of LAD coronary artery ligation-induced cardiac fibrosis assessed as decrease in heart weight ratio at 2.86 mg/kg, po administered via gavage for 30 days
[3] = tested on: Rattus norvegicus; assay: Cardioprotective activity in Sprague-Dawley rat model of LAD coronary artery ligation-induced cardiac fibrosis assessed as increase in left ventricular function by measuring reduction in LAD-induced anterior wall weakened at 2.86 mg/kg, po administered via gavage for 30 days by echocardiography
[4] = tested on: Rattus norvegicus; assay: Cardioprotective activity in Sprague-Dawley rat model of LAD coronary artery ligation-induced cardiac fibrosis assessed as increase in ejection fraction at 2.86 mg/kg, po administered via gavage for 30 days by echocardiography
[5] = tested on: Rattus norvegicus; assay: Cardioprotective activity in Sprague-Dawley rat model of LAD coronary artery ligation-induced cardiac fibrosis assessed as increase in fractional shortening at 2.86 mg/kg, po administered via gavage for 30 days by echocardiography
[6] = tested on: Rattus norvegicus; assay: Cardioprotective activity in Sprague-Dawley rat model of LAD coronary artery ligation-induced cardiac fibrosis assessed as increase in organized myocardial cells at 2.86 mg/kg, po administered via gavage for 30 days by H and E staining based optical microscopic method
[7] = tested on: Rattus norvegicus; assay: Cardioprotective activity in Sprague-Dawley rat model of LAD coronary artery ligation-induced cardiac fibrosis assessed as reduction in infarct survival area of myocardial cells at 2.86 mg/kg, po administered via gavage for 30 days by H and E staining based optical microscopic method
[8] = tested on: Rattus norvegicus; assay: Cardioprotective activity in Sprague-Dawley rat model of LAD coronary artery ligation-induced cardiac fibrosis assessed as decrease in collagen in heart at 2.86 mg/kg, po administered via gavage for 30 days by Masson trichrome staining based microscopic method
[9] = tested on: Rattus norvegicus; assay: Cardioprotective activity in Sprague-Dawley rat model of LAD coronary artery ligation-induced cardiac fibrosis assessed as decrease in collagen volume fraction at 2.86 mg/kg, po administered via gavage for 30 days by Masson trichrome staining based microscopic method
[10] = tested on: Rattus norvegicus; assay: Cardioprotective activity in Sprague-Dawley rat model of LAD coronary artery ligation-induced cardiac fibrosis assessed as increase in organized myocardial cells at 10 mg/kg, po administered via gavage for 30 days by H and E staining based optical microscopic method
[11] = tested on: Rattus norvegicus; assay: Cardioprotective activity in Sprague-Dawley rat model of LAD coronary artery ligation-induced cardiac fibrosis assessed as decrease in myocardial necrotic area at 10 mg/kg, po administered via gavage for 30 days
[12] = tested on: Rattus norvegicus; assay: Cardioprotective activity in Sprague-Dawley rat model of LAD coronary artery ligation-induced cardiac fibrosis assessed as decrease in heart weight ratio at 10 mg/kg, po administered via gavage for 30 days
[13] = tested on: Rattus norvegicus; assay: Cardioprotective activity in Sprague-Dawley rat model of LAD coronary artery ligation-induced cardiac fibrosis assessed as increase in left ventricular function by measuring reduction in LAD-induced anterior wall weakened at 10 mg/kg, po administered via gavage for 30 days by echocardiography
[14] = tested on: Rattus norvegicus; assay: Cardioprotective activity in Sprague-Dawley rat model of LAD coronary artery ligation-induced cardiac fibrosis assessed as increase in ejection fraction at 10 mg/kg, po administered via gavage for 30 days by echocardiography
[15] = tested on: Rattus norvegicus; assay: Cardioprotective activity in Sprague-Dawley rat model of LAD coronary artery ligation-induced cardiac fibrosis assessed as increase in fractional shortening at 10 mg/kg, po administered via gavage for 30 days by echocardiography
[16] = tested on: Rattus norvegicus; assay: Cardioprotective activity in Sprague-Dawley rat model of LAD coronary artery ligation-induced cardiac fibrosis assessed as reduction in infarct survival area of myocardial cells at 10 mg/kg, po administered via gavage for 30 days by H and E staining based optical microscopic method
[17] = tested on: Rattus norvegicus; assay: Cardioprotective activity in Sprague-Dawley rat model of LAD coronary artery ligation-induced cardiac fibrosis assessed as decrease in collagen in heart at 10 mg/kg, po administered via gavage for 30 days by Masson trichrome staining based microscopic method
[18] = tested on: Rattus norvegicus; assay: Cardioprotective activity in Sprague-Dawley rat model of LAD coronary artery ligation-induced cardiac fibrosis assessed as decrease in collagen volume fraction at 10 mg/kg, po administered via gavage for 30 days by Masson trichrome staining based microscopic method
[19] = tested on: Rattus norvegicus; assay: Cardioprotective activity in Sprague-Dawley rat model of LAD coronary artery ligation-induced cardiac fibrosis assessed as decrease in Col3a1 mRNA expression at 10 mg/kg, po administered via gavage for 30 days by RT2 Profiler PCR Array
[20] = tested on: Rattus norvegicus; assay: Cardioprotective activity in Sprague-Dawley rat model of LAD coronary artery ligation-induced cardiac fibrosis assessed as decrease in CTGF mRNA expression at 10 mg/kg, po administered via gavage for 30 days by RT2 Profiler PCR Array
[21] = tested on: Rattus norvegicus; assay: Cardioprotective activity in Sprague-Dawley rat model of LAD coronary artery ligation-induced cardiac fibrosis assessed as decrease in Lox mRNA expression at 10 mg/kg, po administered via gavage for 30 days by RT2 Profiler PCR Array

Measured: Activity

CCOC(=O)[C@H](CCc1ccccc1)N[C@@H](C)C(=O)N1CCC[C@H]1C(=O)O
active: [1] | [2] | [3] | [4] | [5] | [6] | [7] | [8] | [9]

COc1cc2c(c(OC)c1OC)-c1c(cc3c(c1OC)OCO3)C[C@H](C)[C@](C)(O)[C@H]2OC(=O)c1ccccc1
active: [10] | [11] | [12] | [13] | [14] | [15] | [16] | [17] | [18] | [19] | [20] | [21]
